This note sets out measurements from patent US10752587B2, “Homobispiperidinyl derivatives as liver X receptor beta agonists, compositions and their use” (Merck Sharp & Dohme Corp., priority 2015, dated 2020).

The target in assay [1] is T1, glutathione-S-transferase (GST) tagged LXRbeta LBD (ligand binding domain) (Homo sapiens, UniProt P55055).
T1 construct: purchased Invitrogen pv4658.pps
T1 sequence (P55055 222-460 limits assumed): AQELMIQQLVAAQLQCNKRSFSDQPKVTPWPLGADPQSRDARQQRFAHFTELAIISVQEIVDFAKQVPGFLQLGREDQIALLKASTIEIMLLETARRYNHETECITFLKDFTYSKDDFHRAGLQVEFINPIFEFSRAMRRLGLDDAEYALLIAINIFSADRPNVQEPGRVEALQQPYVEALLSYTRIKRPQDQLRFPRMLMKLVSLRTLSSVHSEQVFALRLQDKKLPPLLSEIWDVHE
As to the kind of experiment: LanthaScreen TR-FRET Liver X Receptor Coactivator Assay, co-activator recruitment to LXRbeta LBD. It is filed as biochemical. The settings on record: for Emax / LXR beta Activity @ max dose (%): efficacy at max dose, in relation to reference dual agonist T0901317; for Emax: read-out: LXR beta Activity @ max dose (%); for pEC50: potency (Inflection Point, IP), co-activator recruitment to LXRbeta LBD, in relation to T0901317, read-out: LXR beta IP. A digest of the protocol: (§1)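 TR-FRET coactivator recruitment; compound + LBD, then fluorescein-coactivator peptide/Tb-anti-GST Ab mix; RT incubation; IP and Emax vs T0901317.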
Background: In TR-FRET formats the signal depends on donor and acceptor labels being close together.

Assay [2] has as its target T2, glutathione-S-transferase (GST) tagged LXRalpha LBD (ligand binding domain) (Homo sapiens, UniProt Q13133).
T2 construct: purchased Invitrogen pv4655
T2 sequence (Q13133 209-447 limits assumed): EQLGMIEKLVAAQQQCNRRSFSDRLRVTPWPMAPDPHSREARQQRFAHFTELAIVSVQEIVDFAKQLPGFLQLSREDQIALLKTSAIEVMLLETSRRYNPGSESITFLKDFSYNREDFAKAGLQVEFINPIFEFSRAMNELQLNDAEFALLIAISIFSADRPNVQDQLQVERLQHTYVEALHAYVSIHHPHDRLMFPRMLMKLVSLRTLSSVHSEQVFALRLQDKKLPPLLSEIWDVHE
As to the kind of experiment: LanthaScreen TR-FRET Liver X Receptor Coactivator Assay, co-activator recruitment to LXRalpha LBD. The class given is biochemical. The settings on record: for Emax / LXR alpha Activity @ max dose (%): efficacy at max dose, in relation to reference dual agonist T0901317; for Emax: read-out: LXR alpha Activity @ max dose (%); for pEC50 / LXR alpha IP (nM): potency (Inflection Point, IP), co-activator recruitment to LXRalpha LBD, in relation to T0901317; for pEC50: read-out: LXR alpha IP. A digest of the protocol:
as §1

pEC50: −log10 of the molar value.

On to `CNC(=O)c1ccc(N2CCC(CC3CCN(C(=O)[C@](O)(c4cccc(C(C)C)c4)C(F)(F)F)CC3)CC2)cc1Cl` [Example 7-123, 2-chloro-N-methyl-4-{4-[(1-{(2R)-3,3,3-trifluoro-2-hydroxy-2-[3-(1-methylethyl)phenyl]propanoyl}piperidin-4-yl)methyl]piperidin-1-yl}benzamide], for which, in assay [1], the Emax worked out at 73% and the pEC50 is 7.77. In assay [2], the Emax came out at 21% and the pEC50 is 6.51.

Regarding `CNC(=O)c1ccc(N2CCC(CC3CCN(C(=O)[C@](O)(c4cccc(OC)c4)C(F)(F)C(F)(F)F)CC3)CC2)cc1Cl` [Example 7-124, 2-chloro-N-methyl-4-[4-({1-[(2R)-3,3,4,4,4-pentafluoro-2-hydroxy-2-(3-methoxyphenyl)butanoyl]piperidin-4-yl}methyl)piperidin-1-yl]benzamide], in assay [1], the Emax stood at 96% and the pEC50 was 7.55. Further, in assay [2], the Emax amounted to 36% and the pEC50 was 6.32.

Consider `CNC(=O)c1ccc(N2CCC(CC3CCN(C(=O)[C@](O)(c4cccc(OC(F)(F)F)c4)C(F)(F)F)CC3)CC2)cc1Cl` [Example 7-125, 2-chloro-N-methyl-4-{4-[(1-{(2R)-3,3,3-trifluoro-2-hydroxy-2-[3-(trifluoromethoxy)phenyl]propanoyl}piperidin-4-yl)methyl]piperidin-1-yl}benzamide], for which, in assay [1], the Emax worked out at 79% and the pEC50 is 7.43. In assay [2], the Emax is 24% and the pEC50 was 6.13.

Turning to `CNC(=O)c1ccc(N2CCC(CC3CCN(C(=O)[C@](O)(c4ccccc4)C(F)(F)F)CC3)CC2)cc1Cl` [Example 7-126, 2-chloro-N-methyl-4-[4-({1-[(2R)-3,3,3-trifluoro-2-hydroxy-2-phenylpropanoyl]piperidin-4-yl}methyl)piperidin-1-yl]benzamide], in assay [1], the “LXR beta Activity @ max dose (%)” value turned out to be 91% and the pEC50 is 7.72. Also, in assay [2], the “LXR alpha Activity @ max dose (%)” value worked out at 46% and the pEC50 was 6.34.

For the molecule `CNC(=O)c1ccc(N2CCC(CC3CCN(C(=O)[C@](O)(c4cccc(OC)c4)C(F)(F)F)CC3)CC2)cc1Cl` [Example 7-127, 2-chloro-N-methyl-4-[4-({1-[(2R)-3,3,3-trifluoro-2-hydroxy-2-(3-methoxyphenyl)propanoyl]piperidin-4-yl}methyl)piperidin-1-yl]benzamide], in assay [1], the “LXR beta Activity @ max dose (%)” value came to 60% and the pEC50 was 7.72. In assay [2], the “LXR alpha Activity @ max dose (%)” value was 7% and the “LXR alpha IP (nM)” value was “NO IP”.

Consider `CNC(=O)c1ccc(N2CCC(CC3CCN(C(=O)[C@](O)(c4cccc(C(F)(F)F)c4)C(F)(F)F)CC3)CC2)cc1Cl` [Example 7-128, 2-chloro-N-methyl-4-{4-[(1-{(2R)-3,3,3-trifluoro-2-hydroxy-2-[3-(trifluoromethyl)phenyl]propanoyl}piperidin-4-yl)methyl]piperidin-1-yl}benzamide], for which, in assay [1], the Emax amounted to 78% and the pEC50 is 7.29. In addition, in assay [2], the Emax is 30% and the pEC50 was 5.93.

Consider `CNC(=O)c1ccc(N2CCC(CC3CCN(C(=O)C(O)(c4cccc(Cl)c4)C(F)(F)F)CC3)CC2)cc1Cl` (stereo not drawn) [Example 7-129, 2-chloro-4-[4-({1-[2-(3-chlorophenyl)-3,3,3-trifluoro-2-hydroxypropanoyl]piperidin-4-yl}methyl)piperidin-1-yl]-N-methylbenzamide], for which, in assay [1], the “LXR beta Activity @ max dose (%)” value is 90% and the pEC50 is 7.80. In addition, the “LXR alpha IP (nM)” value in assay [2] is “NO IP”.

For `O=C(NCCn1cncn1)c1ccc(N2CCC(CC3CCN(C(=O)[C@](O)(c4cc(Cl)cc(Cl)c4)C(F)(F)F)CC3)CC2)cc1Cl` [Example 7-130, 2-chloro-4-[4-({1-[(2R)-2-(3,5-dichlorophenyl)-3,3,3-trifluoro-2-hydroxypropanoyl]piperidin-4-yl}methyl)piperidin-1-yl]-N-[2-(1H-1,2,4-triazol-1-yl)ethyl]benzamide], in assay [1], the Emax turned out to be 54% and the pEC50 is 7.14. For the same molecule, in assay [2], the Emax was determined as 7% and the “LXR alpha IP (nM)” value was “NO IP”.

With `CNC(=O)c1ccc(N2CCC(CC3CCN(C(=O)[C@](O)(c4ccccc4)C(F)(F)C(F)(F)F)CC3)CC2)nc1Cl` [Example 7-131, 2-chloro-N-methyl-6-[4-({1-[(2R)-3,3,4,4,4-pentafluoro-2-hydroxy-2-phenylbutanoyl]piperidin-4-yl}methyl)piperidin-1-yl]pyridine-3-carboxamide], in assay [1], the Emax worked out at 145% and the pEC50 is 7.57. In addition, in assay [2], the Emax was determined as 74% and the pEC50 is 6.43.

Consider `CNC(=O)c1ccc(N2CCC(CC3CCN(C(=O)[C@](O)(c4cc(F)cc(OC)c4)C(F)(F)F)CC3)CC2)nc1Cl` [Example 7-132, 2-chloro-N-methyl-6-[4-({1-[(2R)-3,3,3-trifluoro-2-(3-fluoro-5-methoxyphenyl)-2-hydroxypropanoyl]piperidin-4-yl}methyl)piperidin-1-yl] pyridine-3-carboxamide], for which, in assay [1], the Emax turned out to be 124% and the pEC50 was 8.30. Also, in assay [2], the Emax was 22% and the pEC50 was 7.12.

For `CNC(=O)c1ccc(N2CCC(CC3CCN(C(=O)C(O)(c4cc(F)cc(F)c4)C(F)(F)F)CC3)CC2)nc1Cl` (stereo not drawn) [Example 7-133, 2-chloro-6-[4-({1-[2-(3,5-difluorophenyl)-3,3,3-trifluoro-2-hydroxypropanoyl]piperidin-4-yl}methyl)piperidin-1-yl]-N-methylpyridine-3-carboxamide], in assay [1], the Emax came out at 123% and the pEC50 is 8.22. For the same molecule, in assay [2], the Emax came to 66% and the pEC50 is 7.08.

`CNC(=O)c1ccc(N2CCC(CC3CCN(C(=O)[C@](O)(c4cc(Cl)cc(Cl)c4)C(F)(F)F)CC3)CC2)nc1Cl` [Example 7-134, 2-chloro-6-[4-({1-[(2R)-2-(3,5-dichlorophenyl)-3,3,3-trifluoro-2-hydroxypropanoyl]piperidin-4-yl}methyl)piperidin-1-yl]-N-methylpyridine-3-carboxamide]: in assay [1], the Emax is 78% and the pEC50 was 8.05. Further, in assay [2], the Emax worked out at 14% and the “LXR alpha IP (nM)” value is “NO IP”.

With `CNC(=O)c1ccc(N2CCC(CC3CCN(C(=O)[C@](O)(c4cccc(OC)c4)C(F)(F)F)CC3)CC2)nc1Cl` [Example 7-135, 2-chloro-N-methyl-6-[4-({1-[(2R)-3,3,3-trifluoro-2-hydroxy-2-(3-methoxyphenyl)propanoyl]piperidin-4-yl}methyl)piperidin-1-yl]pyridine-3-carboxamide], in assay [1], the Emax worked out at 81% and the pEC50 is 7.89. Moreover, in assay [2], the Emax turned out to be 14% and the “LXR alpha IP (nM)” value was “NO IP”.

Regarding `CNC(=O)c1ccc(N2CCC(CC3CCN(C(=O)[C@](O)(c4cccc(OC(C)C)c4)C(F)(F)F)CC3)CC2)nc1Cl` [Example 7-136, 2-chloro-N-methyl-6-{4-[(1-{(2R)-3,3,3-trifluoro-2-hydroxy-2-[3-(1-methylethoxy)phenyl]propanoyl}piperidin-4-yl)methyl]piperidin-1-yl}pyridine-3-carboxamide], in assay [1], the Emax was determined as 86% and the pEC50 was 7.85. Moreover, in assay [2], the Emax amounted to 6% and the “LXR alpha IP (nM)” value was “NO IP”.

Take `CCOc1cccc([C@@](O)(C(=O)N2CCC(CC3CCN(c4ccc(C(=O)NC)c(Cl)n4)CC3)CC2)C(F)(F)F)c1` [Example 7-137, 2-chloro-6-[4-({1-[(2R)-2-(3-ethoxyphenyl)-3,3,3-trifluoro-2-hydroxypropanoyl]piperidin-4-yl}methyl)piperidin-1-yl]-N-methylpyridine-3-carboxamide]: in assay [1], the Emax came out at 82% and the pEC50 is 7.64. For the same molecule, in assay [2], the Emax was found to be 9% and the “LXR alpha IP (nM)” value is recorded as “NO IP”.

On to `CNC(=O)c1ccc(N2CCC(CC3CCN(C(=O)[C@](O)(c4cccc(OC)c4)C(F)(F)C(F)(F)F)CC3)CC2)nc1Cl` [Example 7-138, 2-chloro-N-methyl-6-[4-({1-[(2R)-3,3,4,4,4-pentafluoro-2-hydroxy-2-(3-methoxyphenyl)butanoyl]piperidin-4-yl}methyl)piperidin-1-yl]pyridine-3-carboxamide], for which the figures for the Emax in assay [1] and in assay [2] were 102% and 39%, respectively. In addition, the results for the pEC50 in assay [1] and in assay [2] were 7.52 and 6.37, respectively.
